Laboratory results from PMC6435658, “Investigation into the Molecular Mechanisms underlying the Anti-proliferative and Anti-tumorigenesis activities of Diosmetin against HCT-116 Human Colorectal Cancer” (Scientific Reports, 2019).
≈ marks a conversion by molar mass, not a printed value.

What was measured:
HCT-116 cells = assay: NanoString nCounter gene expression profiling; type: cell-based, human
Protocol: Gene expressions of the cancer canonical pathways were measured by NanoString nCounter. HCT-116 cells were treated with Dis for 48 h and total RNA were extracted by using RNeasy Mini Kit (QiAgen, Hilden, Germany) according to the manufacture’s protocol. Concentrations of RNA were checked through NanoDrop 2000C (Thermo Scientific™, Pittsburgh, PA, USA). Pancancer pathways panel on Nanostring nCounter system (Nanostring Technologies, Inc., Seattle, WA, USA) were used to investigate the gene expression profile of cancer pathways. A total of 770 genes were investigated and compared between Dis treated and untreated cells. The list of investigated genes is provided as supplementary data (Table S1). RNA was hybridized, purified and immobilized before being aligned on the nCounter cartridge and introduced to nCounter.
Digital Analyzer was utilized for data collection according to the manufacturer’s instruction. Briefly, RNA samples were added to the master mix contain hybridization buffer and reporter CodeSet. Capture ProbeSet was added to this mixture and introduced to pre-heated 65 °C thermal cycler for 16 h incubation. After removing the unbound probe, target/probe were immobilized and aligned on the nCounter Cartridge. nCounter digital analyzer was used to collect the nCounter cartridge data and data were analyzed using nSolver 3.0 analysis software. Significant genes were choose based on the false discovery rate (FDR) <0.05 and log2 fold change ≥ ± 0.5 supplementary data (Figure S1).

MCF-10 = tested on: MCF-10; set-up: method as in PMID 19424633, PMID 27176768, PMID 26847170, PMID 20183323; conditions: MCF-10 non-cancerous cells, 24 h; ref [10],[13],[15],[47]; cited from earlier work
caspase 3/7 = assay: Caspase-Glo 3/7 bioluminescent assay; type: cell-based, human; conditions: HCT-116, 24 h, 48 h, 72 h, time dependent
Protocol: To assess the effect of Dis on caspase cascades in treated cells, activities of caspase-Glo 3/7, caspase-Glo 8 and caspase-Glo 9 assays (Promega, Madison, WI, USA) were performed. Briefly, HCT-116 cells with the density of 10^4 cells/well were seeded in 96 well-plates. Cells were treated with Dis for 24 h, 48 h and 72 h. This assay was performed in triplicates for each time point. A total of 6 wells were preserved for samples without cells but with media and reagents as the blank samples, and for the untreated cells as negative control. At the end of incubation time, 100 µl caspase-glo mixture were added to each well and incubated for 1 h in the dark according to the manufacturer’s instructions. Optical density was measured via multimode microplate reader (Tecan Infinite, Männedorf, Switzerland).

cleavage of caspase 3/7 (caspase 3/7): significantly increased
SMILES: COc1ccc(-c2cc(=O)c3c(O)cc(O)cc3o2)cc1O [Dis, Diosmetin]
gene expression of NF-ƙB inhibitor (iƙb-α) (HCT-116 cells; HCT-116, Dis treated): elevates
Log2 fold change, Fubp1 (HCT-116 cells; gene Fubp1, HCT-116, Dis 48 h vs untreated): −0.5
Log2 fold change, Prkar2b (HCT-116 cells; gene Prkar2b, HCT-116, Dis 48 h vs untreated): −1.6
Log2 fold change, bax (HCT-116 cells; gene bax, HCT-116, Dis 48 h vs untreated): 0.5
Log2 fold change, bmp8a (HCT-116 cells; gene bmp8a, HCT-116, Dis 48 h vs untreated): −2.2
Log2 fold change, ccna2 (cyclin A) (HCT-116 cells; gene ccna2 (cyclin A), HCT-116, Dis 48 h vs untreated): −0.6
Log2 fold change, ccnb1 (cyclin B) (HCT-116 cells; gene ccnb1 (cyclin B), HCT-116, Dis 48 h vs untreated): −0.5
Log2 fold change, cdc7 (HCT-116 cells; gene cdc7, HCT-116, Dis 48 h vs untreated): −0.8
Log2 fold change, cdc25 (HCT-116 cells; gene cdc25, HCT-116, Dis 48 h vs untreated): −0.6
Log2 fold change, cdkn1a (p21) (HCT-116 cells; gene cdkn1a (p21), HCT-116, Dis 48 h vs untreated): 1.5
Log2 fold change, fas (HCT-116 cells; gene fas, HCT-116, Dis 48 h vs untreated): 0.8
Log2 fold change, gadd45 (HCT-116 cells; gene gadd45, HCT-116, Dis 48 h vs untreated): 0.8
Log2 fold change, h2afx (HCT-116 cells; gene h2afx, HCT-116, Dis 48 h vs untreated): −0.9
Log2 fold change, h3f3a (h2a) (HCT-116 cells; gene h3f3a (h2a), HCT-116, Dis 48 h vs untreated): −0.9
Log2 fold change, hdac1 (HCT-116 cells; gene hdac1, HCT-116, Dis 48 h vs untreated): −0.5
Log2 fold change, hdac2 (HCT-116 cells; gene hdac2, HCT-116, Dis 48 h vs untreated): −0.6
Log2 fold change, hdac5 (HCT-116 cells; gene hdac5, HCT-116, Dis 48 h vs untreated): −2.6
Log2 fold change, hells (HCT-116 cells; gene hells, HCT-116, Dis 48 h vs untreated): −0.6
Log2 fold change, hist1h3b (HCT-116 cells; gene hist1h3b, HCT-116, Dis 48 h vs untreated): −1.2
Log2 fold change, hist1h3h (HCT-116 cells; gene hist1h3h, HCT-116, Dis 48 h vs untreated): −1.5
Log2 fold change, hspb1 (hsp27) (HCT-116 cells; gene hspb1 (hsp27), HCT-116, Dis 48 h vs untreated): −2.2
Log2 fold change, id1 (HCT-116 cells; gene id1, HCT-116, Dis 48 h vs untreated): −0.5
Log2 fold change, id2 (HCT-116 cells; gene id2, HCT-116, Dis 48 h vs untreated): −2.0
Log2 fold change, mad2l2 (HCT-116 cells; gene mad2l2, HCT-116, Dis 48 h vs untreated): −0.6
Log2 fold change, mcm2 (HCT-116 cells; gene mcm2, HCT-116, Dis 48 h vs untreated): −0.6
Log2 fold change, mcm4 (HCT-116 cells; gene mcm4, HCT-116, Dis 48 h vs untreated): −0.6
Log2 fold change, mcm7 (HCT-116 cells; gene mcm7, HCT-116, Dis 48 h vs untreated): −0.6
Log2 fold change, msh2 (HCT-116 cells; gene msh2, HCT-116, Dis 48 h vs untreated): −0.7
Log2 fold change, nbn (HCT-116 cells; gene nbn, HCT-116, Dis 48 h vs untreated): −0.5
Log2 fold change, pcna (HCT-116 cells; gene pcna, HCT-116, Dis 48 h vs untreated): −0.6
Log2 fold change, pole2 (HCT-116 cells; gene pole2, HCT-116, Dis 48 h vs untreated): −1.4
Log2 fold change, pttg2 (HCT-116 cells; gene pttg2, HCT-116, Dis 48 h vs untreated): −0.9
Log2 fold change, rad21 (HCT-116 cells; gene rad21, HCT-116, Dis 48 h vs untreated): −0.8
Log2 fold change, rbx1 (HCT-116 cells; gene rbx1, HCT-116, Dis 48 h vs untreated): −1.2
Log2 fold change, setd2 (HCT-116 cells; gene setd2, HCT-116, Dis 48 h vs untreated): 0.7
Log2 fold change, sfn (stratifin) (HCT-116 cells; gene sfn (stratifin), HCT-116, Dis 48 h vs untreated): 0.6
Log2 fold change, sin3 (HCT-116 cells; gene sin3, HCT-116, Dis 48 h vs untreated): −0.5
Log2 fold change, smad9 (HCT-116 cells; gene smad9, HCT-116, Dis 48 h vs untreated): −2.7
Log2 fold change, smc3 (HCT-116 cells; gene smc3, HCT-116, Dis 48 h vs untreated): −0.7
Log2 fold change, stmn1 (HCT-116 cells; gene stmn1, HCT-116, Dis 48 h vs untreated): −1.5
Log2 fold change, tnfrsf10b (HCT-116 cells; gene tnfrsf10b, HCT-116, Dis 48 h vs untreated): 0.8
Log2 fold change, ttk (HCT-116 cells; gene ttk, HCT-116, Dis 48 h vs untreated): −1.0
Log2 fold change, ubb (HCT-116 cells; gene ubb, HCT-116, Dis 48 h vs untreated): −0.9
IC50 (MCF-10): 30 µg/mL (≈ 99.9 µM)
